Measured values: patent US20040116299A1, “Phthalamide derivates, insecticides for agricultural and horticultural use and method for application thereof” (priority 2001, published 2004)

Legend:
Format in all cases: in vivo
[1] = tested on: Common Cutworm (Spodoptera litura); assay: Test Example 2: insecticidal effect on common cutworm, cabbage leaf dip, second-instar larvae; conditions: cabbage leaf immersed about 30 seconds, counted eight days after inoculation, 25° C.; for mortality at 5 ppm / mortality at 50 ppm: Spodoptera litura, foliar, 192 h, read-out: Test Example 2 insecticidal effect (mortality criterion)
Excerpt: Insecticidal Effect on Common Cutworm (Spodoptera litura)
A piece of cabbage leaf (cultivar; Shikidori) was immersed for about 30 seconds in a liquid chemical prepared by diluting a preparation containing each compound listed in Table 1 or 2 as an active ingredient to adjust the prescribed concentration. After air-dryness, it was placed in a plastic Petri dish with a diameter of 9 cm and inoculated with second-instar larvae of common cutworm, after which the dish was closed and then allowed to stand in a room thermostatted at 25° C. Eight days after the inoculation, the dead and alive were counted. The mortality was calculated according to the following equation and the insecticidal effect was judged according to the criterion shown in Test Example 1. The test was carried out with triplicate groups of 10 insects. [formula]

[2] = tested on: Diamond Back Moth (Plutella xylostella); assay: Test Example 1: insecticidal effect on diamond back moth, immersion of Chinese cabbage seedling bearing eggs; conditions: seedling with eggs immersed about 30 seconds, counted six days after immersion, 25° C.; for mortality at 5 ppm / mortality at 50 ppm: Plutella xylostella, 144 h, read-out: Test Example 1 insecticidal effect (mortality criterion)
Excerpt: Insecticidal Effect on Diamond Back Moth (Plutella xylostella)
Adult diamond back moths were released and allowed to oviposit on a Chinese cabbage seedling. Two days after the release, the seedling having the eggs deposited thereon was immersed for about 30 seconds in a liquid chemical prepared by diluting a preparation containing each compound listed in Table 1 or 2 as an active ingredient to adjust the prescribed concentration. After air-dryness, it was allowed to stand in a room thermostatted at 25° C. Six days after the immersion, the hatched insects were counted. The mortality was calculated according to the following equation and the insecticidal effect was judged according to the criterion shown below. The test was carried out with triplicate groups of 10 insects. [formula]
The compounds described in JP-A-2001-131141 were used as comparative compounds as follows: […]

[3] = tested on: diamondback moth (Plutella xylostella); assay: Test Example 3: controlling effect on diamondback moth by soil treatment for cabbage (planting-hole granules); conditions: 20 mgAI/plant granules in planting hole; for Number of parasites/3 plants After 18 days: 18 days after trans-planting; for Number of parasites/3 plants After 25 days: 25 days after trans-planting; for Number of parasites/3 plants After 32 days: 32 days after trans-planting; for Number of parasites/3 plants After 42 days: 42 days after trans-planting
Protocol: Controlling effect on diamondback moth (Plutella xylostella) by soil treatment for cabbage At the time of trans-planting cabbage plants (cultivar: YR Seitoku), planting holes were treated with granules prepared from the compound listed in Table 1 or 2 according to Formulation Example. Diamondback moths parasitic on the cabbage plants were counted on predetermined days after the trans-planting. In Table 4, mgAI/plant denotes the dosage (mg) of the active ingredient per plant.

SMILES: Cc1cc(I)ccc1NC(=O)c1cccc(I)c1C(=O)NC(C)(C)C[S+](C)[O-] (stereo not shown) [compound 31, N^2-(1,1-dimethyl-2-methylsulfinylethyl)-3-iodo-N^1-(4-iodo-2-methylphenyl)phthalamide]
- mortality at 5 ppm [1]: 0 to 49%
- mortality at 50 ppm ([1]; 50 ppm): 100%
- mortality at 5 ppm ([2]; 5 ppm): 100%
- mortality at 50 ppm ([2]; 50 ppm): 100%

SMILES: Cc1cc(I)ccc1NC(=O)c1cccc(I)c1C(=O)NC(C)(C)CS(C)(=O)=O [compound 32, N^2-(1,1-dimethyl-2-methylsulfonylethyl)-3-iodo-N^1-(4-iodo-2-methylphenyl)phthalamide]
- mortality at 5 ppm [1]: 0 to 49%
- mortality at 50 ppm ([1]; 50 ppm): 100%
- mortality at 5 ppm ([2]; 5 ppm): 100%
- mortality at 50 ppm ([2]; 50 ppm): 100%

SMILES: CCSCC(C)NC(=O)c1cccc(I)c1C(=O)Nc1ccc(Cl)cc1C (stereo not shown) [B, N^2-(4-chloro-2-methylphenyl) -3-iodo-N^1-(2-ethylthio-1-methylethyl)phthalamide, reference compound]
- mortality at 5 ppm [1]: 0 to 49%
- mortality at 50 ppm ([1]; 50 ppm): 0 to 49%
- mortality at 5 ppm ([2]; 5 ppm): 0 to 49%
- mortality at 50 ppm ([2]; 50 ppm): 100%

SMILES: CSCC(C)NC(=O)c1cccc(I)c1C(=O)Nc1ccc(Cl)cc1C (stereo not shown) [A, N^2-(4-chloro-2-methylphenyl)-3-iodo-N^1-(1-methyl-2-methylthioethyl)phthalamide, reference compound]
- Number of parasites/3 plants After 18 days [3]: 8 parasites/3 plants
- Number of parasites/3 plants After 25 days [3]: 75 parasites/3 plants
- Number of parasites/3 plants After 32 days [3]: 143 parasites/3 plants
- Number of parasites/3 plants After 42 days [3]: 146 parasites/3 plants
- mortality at 5 ppm [1]: 0 to 49%
- mortality at 50 ppm ([1]; 50 ppm): 0 to 49%
- mortality at 5 ppm ([2]; 5 ppm): 0 to 49%
- mortality at 50 ppm ([2]; 50 ppm): 100%

SMILES: CSCC(C)(C)NC(=O)c1c(I)cccc1C(=O)Nc1ccc(Cl)c(C(F)(F)F)c1Cl [compound 142]
- Test Example 2 insecticidal effect (mortality criterion) ([1]; 50 ppm): A (Mortality 100%)
- Test Example 1 insecticidal effect (mortality criterion) ([2]; 50 ppm): A (Mortality 100%)

SMILES: CC(C)(CS(C)(=O)=O)NC(=O)c1c(I)cccc1C(=O)Nc1ccc(Cl)cc1Cl [compound 101]
- Test Example 1 insecticidal effect (mortality criterion) ([2]; 5 ppm): A (Mortality 100%)
- Test Example 1 insecticidal effect (mortality criterion) ([2]; 50 ppm): A (Mortality 100%)

SMILES: Cc1cc(Br)ccc1NC(=O)c1cccc(I)c1C(=O)NC(C)(C)C[S+](C)[O-] (stereo not shown) [compound 28]
- Number of parasites/3 plants After 18 days [3]: 0 parasites/3 plants
- Number of parasites/3 plants After 25 days [3]: 7 parasites/3 plants
- Number of parasites/3 plants After 32 days [3]: 23 parasites/3 plants
- Number of parasites/3 plants After 42 days [3]: 59 parasites/3 plants

SMILES: CSCC(C)(C)NC(=O)c1c(I)cccc1C(=O)Nc1ccc(I)cc1C [compound 30, N^2-(1,1-dimethyl-2-methylthioethyl)-3-iodo-N^1-(4-iodo-2-methylphenyl)phthalamide]
- Number of parasites/3 plants After 18 days [3]: 0 parasites/3 plants
- Number of parasites/3 plants After 25 days [3]: 9 parasites/3 plants
- Number of parasites/3 plants After 32 days [3]: 19 parasites/3 plants
- Number of parasites/3 plants After 42 days [3]: 37 parasites/3 plants
- mortality at 5 ppm [1]: 0 to 49%
- mortality at 50 ppm ([1]; 50 ppm): 100%
- mortality at 5 ppm ([2]; 5 ppm): 100%
- mortality at 50 ppm ([2]; 50 ppm): 100%

SMILES: Cc1cc(Cl)ccc1NC(=O)c1cccc(I)c1C(=O)NC(C)(C)C[S+](C)[O-] (stereo not shown) [compound 25]
- Number of parasites/3 plants After 18 days [3]: 0 parasites/3 plants
- Number of parasites/3 plants After 25 days [3]: 0 parasites/3 plants
- Number of parasites/3 plants After 32 days [3]: 6 parasites/3 plants
- Number of parasites/3 plants After 42 days [3]: 22 parasites/3 plants
